Type in all cases: cell-based
Experiment [1] concerns stress-inducible HVA1 promoter. Kind of experiment: HVA1-SGFP expression in maize leaf protoplasts treated with Ca2+ ionophores. The conditions noted are these: 1 mM Ca2+ alone or with 100 nM ionophore in incubation medium. An excerpt: The role of Ca^2+ as a second messenger in multiple stress responses was also studied. The effects of increased intracellular Ca^2+ on HVA1-SGFP expression in maize leaf protoplasts using Ca^2+ ionophore was examined using standard methods as described below (Knight et al., Nature 352:524, 1991; Schroeder and Thuleau, Plant Cell 3:555, 1991; Braam, Proc. Natl. Acad. Sci. U.S.A. 89:3213, 1992; McAinsh et al., Plant Cell 4:1113, 1992; Assmann, Ann. Rev. Cell Biol. 9:345, 1993; Poovaiah and Reddy, Crit. Rev. Plant Sci. 12:185, 1993; Trewavas and Knight, Plant Mol. Biol. 26:1329, 1994; Ward and Schroeder, Plant Cell 6:669, 1994; Bethke et al., in Plant Hormones, Davies, Ed., (Kluwer Academic 1995) pp. 298–317; Bush, Ann. Rev. Plant Physiol. Plant Mol. Biol. 46:95, 1995; Monroy and Dhindsa, Plant Cell 7:32, 1995; and Knight et al., Plant Cell 8:489, 1996).
Maize leaf protoplasts transfected with HVA1-SGFP (HVA) or UBI-SGFP (UBI) were treated with 1 mM Ca^2+, 1 mM Ca^2+/100 nM A23187, and 1 mM Ca^2+/100 nM ionomycin, respectively designated “C,” “A,” and “I” in FIG. 2. UBI-SGFP was constructed by inserting the UBI promoter from pAHC27 (Christensen et al., Plant Mol. Biol. 18:675, 1992) into the SGFP vector (Chiu et al., Curr. Biol. 6:225, 1996). […] About 10^5 protoplasts from each treatment were observed using a fluorescence microscope (Chiu et al., Curr. Biol. 6:225, 1996). […]

Experiment [2] deals with HVA1 promoter. Put plainly: HVA1-LUC expression with constitutively active or null PP2C effector in maize leaf protoplasts. The conditions noted are these: ABA treatment. An excerpt: To further support the idea that ATCDPK1 and ATCDPK1a are positive regulators in plant stress signal transduction, the effect of a specific and constitutively active Arabidopsis protein phosphatase 2C (PP2C) capable of abolishing ABA responses (Leung et al., Science 264:1448, 1994; Meyer et al., Science 264:1452, 1994; Armstrong et al., Proc. Natl. Acad. Sci. USA 92:9520, 1995) was examined as follows. Maize leaf protoplasts were electroporated with HVA1-LUC alone or with the effectors as indicated. […] The experiments with the constitutively active PP2C or the null PP2C were performed with two concentrations of plasmid DNA (+, 20 μg and ++, 60 μg) (FIG. 4C). LUC and GUS assays were performed with 2% of the cell lysates as described previously by Sheen (EMBO J. 12:3497, 1993; Jefferson, Plant Mol. Biol. Rep. 5:387, 1987; and Luehrsen et al., Meth. Enz. 216:397, 1992). Relative LUC activities from duplicated samples are shown. The experiment was repeated three times with similar results (FIG. 4C).

For experiment [3], the system named is stress-inducible HVA1 promoter. Put plainly: HVA1-SGFP reporter expression in maize leaf protoplasts under stress/ABA treatment. The source says: Responses to multiple stress treatments were monitored using green-fluorescent protein (GFP) as a vital reporter (Chiu et al. Curr. Biol. 6:225, 1996), using a single cell maize leaf protoplast system (Sheen, EMBO J 12:3497, 1993). A chimeric gene was generated by fusing the stress-inducible CDPK HVA1 promoter (Straub et al., Plant Mol. Biol. 26:617, 1994) to a synthetic GFP sequence (HVA1-SGFP) (Chiu et al. Curr. Biol. 6:225, 1996). The barley HVA1 promoter was obtained by PCR using barley genomic DNA and two primers: 5′[…]-3′ (SEQ ID NO: 17) and 5′-[…]-3′ (SEQ ID NO: 18). The HVA1 promoter and the SGFP were fused at the ATG NcoI site. The CDPK HVA1 gene has been reported to be activated by multiple stress signals in vegetative tissues (Straub et al., Plant Mol. Biol. 26:617, 1994). […]
Maize leaf protoplasts were electroporated with the plasmid DNA carrying HVA1-SGFP and divided (10^5 cells/ml per sample) for various treatments: constant light (15 μEm^−2S^−1) at 23° C. for sixteen hours (Control), 0° C. for four hours followed by twelve hours at 23° C. […] About 10^5 protoplasts from each treatment were observed using a fluorescence microscope as described by Chiu et al. (Curr. Biol. 6:225, 1996). […] About 50% of the protoplasts, showing green/yellow fluorescence after the induction, were transiently transformed. […]

The subject of experiment [4] is HVA1 promoter. Put plainly: HVA1-LUC reporter co-expression with constitutive PK constructs in maize leaf protoplasts. The conditions noted are these: co-electroporated constitutive (truncated) PK construct, without ABA. Here is the method:
For quantitating the effect of various constitutive PKs on stress signaling, another chimeric gene with the HVA1 promoter and the luciferase coding sequence (Leuhrsen et al., Meth. Enz. 216:397, 1992) (HVA1-LUC) was generated. Co-expression experiments were performed by electroporating the reporter (HVA1-LUC) and the effector (35SC4PSK-PK-HA) plasmids together into maize leaf protoplasts as follows.
Maize leaf protoplasts were transfected with HVA1-LUC alone and incubated without (FIG. 3E, “C”) or with 100 μM ABA (FIG. 3E, “A”). HVA1-LUC was also co-electroporated with the PK constructs (1–8) shown in FIG. 3C and FIG. 3D, and incubated without ABA (FIG. 3E, “1–8”). Relative LUC activities from duplicated samples are shown. About 2% of the cell lysates were used for LUC (Luehrsen et al., Meth. Enz. 216:397, 1992) and GUS assays (Sheen, EMBO J. 12:3497, 1993; and Jefferson, Plant Mol. Biol. Rep. 5:387, 1987). The experiment was repeated three times with similar results.

Consider four molecules from patent US7084323B1, “Stress-protected transgenic plants” (The General Hospital Corporation, priority 1996, dated 2006).

Consider `C[C@H](CCC(=O)O)C[C@H](C)C[C@H](C)C(=O)/C=C(\O)[C@H](C)C[C@H](C)C/C=C/[C@@H](C)[C@@H](O)[C@@H](C)[C@@H](O)C[C@@H]1CC[C@@](C)([C@H]2CC[C@@](C)([C@@H](C)O)O2)O1` [ionomycin], for which the “expression of HVA1-GFP” value in experiment [1] was “significantly increased”.

`CNc1ccc2oc(C[C@H]3O[C@@]4(CC[C@H]3C)O[C@H]([C@H](C)C(=O)c3ccc[nH]3)[C@H](C)C[C@H]4C)nc2c1C(=O)O` [A23187]: in experiment [1], the “expression of HVA1-GFP” value is on record as “significantly increased”. Consider `CC1=CC(=O)CC(C)(C)[C@@]1(O)/C=C/C(C)=C\C(=O)O` [ABA, abscisic acid], for which the HVA1-LUC expression result in experiment [2] is listed as “activated”. Moreover, in experiment [3] (1 μM ABA (data not shown)), the “GFP expression from HVA1-SGFP” value was “visible”. Moreover, in experiment [3] (100 μM ABA for sixteen hours, fluorescence microscopy), the “expression of GFP from HVA1-SGFP” value was “enhanced”.

B1: ATCDPK1a: truncated constitutively active Arabidopsis CDPK PK domain, SEQ ID NO: 2 (protein, listed as Arabidopsis thaliana)
chain: MANQTQISDKYILGRELGRGEFGITYLCTDRETREALACKSISKRKLRTAVDVEDVRREVTIMSTLPEHPNVVKLKATYEDNETVHLVMELCEGGELFGRIVARGHYTERAAATVARTIAEVVRMCHVNGVMHRDLKPENFLFANKKENSALKAIDFGLSVLFKPGERFTEIVGSPYYMAPEVLKRNYGPEVDVWSAGVILYILLCGVPPFWAETEQGVALAILRGVLDFKRDPWSQISESAKSLVKQMLEPDSTKRLTAQQVLDHPWIQNAKK
B1: the “LUC expression controlled by the HVA1 promoter” value in experiment [4] is listed as “specifically activate”.
